# Measurements reported in US8211854B2, “Methods for inhibiting protein kinases” (Schering Corporation, priority 2005, dated 2012).
# Biological target: T1, His-CHK1 (Homo sapiens, UniProt O14757)
# T1 construct: fused on or other part: His tag
# T1 sequence (O14757 1-265 limits assumed): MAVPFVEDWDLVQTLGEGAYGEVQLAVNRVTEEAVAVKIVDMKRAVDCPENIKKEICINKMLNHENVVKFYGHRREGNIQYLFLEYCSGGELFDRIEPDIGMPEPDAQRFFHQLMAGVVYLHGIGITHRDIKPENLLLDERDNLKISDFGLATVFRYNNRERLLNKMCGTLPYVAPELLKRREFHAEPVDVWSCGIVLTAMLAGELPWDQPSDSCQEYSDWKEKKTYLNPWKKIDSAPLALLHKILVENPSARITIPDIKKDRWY
# Assay: CHK1 SPA Assay
# Type: biochemical
# Settings: not given
row,SMILES,IC50 [nM]
1,Cn1cc(-c2cnn3c(N)c(Br)c(CC4CCCNC4)nc23)cn1 (stereo not drawn),9
2,Cc1cc(Nc2cc(C3CCCNC3)nc3c(-c4cnn(C)c4)cnn23)sn1 (stereo not drawn),7

# Same assay, conditions: read-out: CHK1 inhibitory activity (IC50)
row,SMILES,IC50 [nM]
1,Cn1cc(-c2cnn3c(N)c(I)c(C4CCCNC4)nc23)cn1 (stereo not drawn),3
2,CC#Cc1c(C2CCCNC2)nc2c(-c3cnn(C)c3)cnn2c1N (stereo not drawn),45

# Same assay, conditions: recombinant His-CHK1, biotinylated CDC25C peptide substrate, 1 μM ATP, 2 hours at room temperature; read-out: CHK1 inhibitory activity (IC50)
row,SMILES,IC50 [nM]
1,Nc1c(Br)c(C2CCCNC2)nc2c(-c3ccoc3)cnn12 (stereo not drawn),25
2,N#Cc1cc(-c2cnn3c(N)c(Br)c(C4CCCNC4)nc23)co1 (stereo not drawn),4
3,Nc1c(Br)c(N2CC[C@H](N)C2)nc2c(-c3ccsc3)cnn12,430
4,Cn1cc(-c2cnn3c(N)c(Br)c(C4CNCCS4)nc23)cn1 (stereo not drawn),6
5,Cn1cc(-c2cnn3c(N)c(Br)c(CCCN)nc23)cn1,11
6,Cn1cc(-c2cnn3c(N)cc(CC4CCNCC4)nc23)cn1,400
7,N#Cc1ccc(-c2cnn3c(N)cc(C4CCCNC4)nc23)cc1 (stereo not drawn),120
8,Cn1cc(-c2cnn3c(N)c(-c4cccs4)c(C4CCCNC4)nc23)cn1 (stereo not drawn),90
9,Cn1cc(-c2cnn3c(Nc4ccc(-n5ccnc5)cc4)cc(C4CCCNC4)nc23)cn1 (stereo not drawn),60
10,CN(C)c1cccc(Nc2cc(C3CCCNC3)nc3c(-c4cnn(C)c4)cnn23)c1 (stereo not drawn),250
11,Cn1cc(-c2cnn3c(Nc4cccc(S(N)(=O)=O)c4)cc(C4CCCNC4)nc23)cn1 (stereo not drawn),390
12,Cn1cc(-c2cnn3c(Nc4ccncc4)cc(C4CCCNC4)nc23)cn1 (stereo not drawn),100
13,Cc1cc(Nc2cc(C3CCCNC3)nc3c(-c4coc(C#N)c4)cnn23)sn1 (stereo not drawn),7
14,Cc1cc(Nc2cc(N3CC[C@@H](N)C3)nc3c(-c4cnn(C)c4)cnn23)sn1,50
